Like-named read-outs stand apart in the source and are kept apart here.
Columns and labels:
[1] = Whole body autoradiography of pregnant mice, zinc isotope 65Zn; type: in vivo
Experimental: (§1) The present inventor commissioned studies where the function of the placenta was investigated using radioactive isotopes of cadmium and zinc. Pregnant female mice were injected intravenously with 8 μc of ^109CdCl2 obtained from Philips Ltd., Eindhoven, Holland. The injection of isotope was made into the tail vein according to standard practice. The mice were injected so that the day of sacrifice coincided approximately with the 18th day after conception, determined by the presence of a vaginal plug after mating. The mice were sacrificed under ether anesthesia by immersion in a mixture of acetone and liquid carbon dioxide (about −80 C). The mice were then sagittally sectioned in a cold room at −10 C according to standard practice, and the sections obtained were affixed to cellulose tape.
(§2) Each section was then apposed to X-ray film together with an isotope reference standard. The sections and films were kept at −10 C until exposure was complete. The determination of the order of cadmium and zinc concentration in different organs was made through densitometric comparison of the autoradiographic exposure caused by the organs, compared to the reference standard.

[2] = Whole body autoradiography of pregnant mice, cadmium isotope 109Cd; type: in vivo; details: for Passage of Cd through the placenta: pregnant mice, intravenous 109CdCl2, about 18th day after conception, autoradiography
Experimental: as §1, §2

[3] = cited from earlier work

| Structure (SMILES) | Passage of Zn through the placenta [1] | Passage of Zn through the placenta ([1]; listed as 65Zn) | Passage of Cd through the placenta [2] | Passage of Cd through the placenta ([2]; listed as 109Cd) | Tissue enrichment of 109Cd ([2]; pregnant mouse, autoradiograph, FIG. 3) | Concentration at which acute toxicity is observed ([3]; cadmium in blood) | Threshold at which medical treatment needs to be initiated ([3]; cadmium, information supplied by VITA Laboratorio) |
| --- | --- | --- | --- | --- | --- | --- | --- |
| [Zn] [Zn, zinc] | passed through the placenta and was enriched in the fetal tissue | capable of passing through the placenta | – | – | – | – | – |
| [Cd] [Cd, cadmium] | – | – | did not pass the placental barrier | no cadmium has passed through the placenta into the fetus | enriched in the liver and kidney, and to some extent in placental tissue | around 50 μng/ml | 50 nmol/L |
